Key:
Assay in all cases: Histone peptide microarray
Type in all cases: binding, human
CHD5 (PCC) = conditions: total n = 4; for Array Heatmap signal, CHD5 (PCC): sheet "Array Heatmap", GST-tagged reader, histone peptide array
How it was run: (§1)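 GST-tagged PHD finger readers were expressed, purified and applied at 0.5 μM to a microarray of 293 synthetic histone peptides carrying single or combinatorial PTMs, using an optimized protocol. Binding signals are averages with standard deviation from 4 replicates.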

BPTF (PB) = conditions: total n = 4; for Array Heatmap signal, BPTF (PB): sheet "Array Heatmap", GST-tagged reader, histone peptide array
How it was run: as §1

PHF21A = conditions: total n = 4; for Array Heatmap signal, PHF21A: sheet "Array Heatmap", GST-tagged reader, histone peptide array
How it was run: as §1

PHF13 = conditions: total n = 4; for Array Heatmap signal, PHF13: sheet "Array Heatmap", GST-tagged reader, histone peptide array
How it was run: as §1

PHRF1 (RP) = conditions: total n = 4; for Array Heatmap signal, PHRF1 (RP): sheet "Array Heatmap", GST-tagged reader, histone peptide array
How it was run: as §1

ING5 = conditions: total n = 4; for Array Heatmap signal, ING5: sheet "Array Heatmap", GST-tagged reader, histone peptide array
How it was run: as §1

TRIM66 (PB) = conditions: total n = 4; for Array Heatmap signal, TRIM66 (PB): sheet "Array Heatmap", GST-tagged reader, histone peptide array
How it was run: as §1

KDM5A (1) = conditions: total n = 4; for Array Heatmap signal, KDM5A (1): sheet "Array Heatmap", GST-tagged reader, histone peptide array
How it was run: as §1

ING4 = conditions: total n = 4; for Array Heatmap signal, ING4: sheet "Array Heatmap", GST-tagged reader, histone peptide array
How it was run: as §1

RAG2 = conditions: total n = 4; for Array Heatmap signal, RAG2: sheet "Array Heatmap", GST-tagged reader, histone peptide array
How it was run: as §1

CHD4 (PPCC) = conditions: total n = 4; for Array Heatmap signal, CHD4 (PPCC): sheet "Array Heatmap", GST-tagged reader, histone peptide array
How it was run: as §1

KDM5B (1) = conditions: total n = 4; for Array Heatmap signal, KDM5B (1): sheet "Array Heatmap", GST-tagged reader, histone peptide array
How it was run: as §1

PHF23 = conditions: total n = 4; for Array Heatmap signal, PHF23: sheet "Array Heatmap", GST-tagged reader, histone peptide array
How it was run: as §1

SP140L = conditions: total n = 4; for Array Heatmap signal, SP140L: sheet "Array Heatmap", GST-tagged reader, histone peptide array
How it was run: as §1

BAZ2B = conditions: total n = 4; for Array Heatmap signal, BAZ2B: sheet "Array Heatmap", GST-tagged reader, histone peptide array
How it was run: as §1

DIDO1 = conditions: total n = 4; for Array Heatmap signal, DIDO1: sheet "Array Heatmap", GST-tagged reader, histone peptide array
How it was run: as §1

KDM5B (3) = conditions: total n = 4; for Array Heatmap signal, KDM5B (3): sheet "Array Heatmap", GST-tagged reader, histone peptide array
How it was run: as §1

TAF3 = conditions: total n = 4; for Array Heatmap signal, TAF3: sheet "Array Heatmap", GST-tagged reader, histone peptide array
How it was run: as §1

ING3 = conditions: total n = 4; for Array Heatmap signal, ING3: sheet "Array Heatmap", GST-tagged reader, histone peptide array
How it was run: as §1

KDM7A = conditions: total n = 4; for Array Heatmap signal, KDM7A: sheet "Array Heatmap", GST-tagged reader, histone peptide array
How it was run: as §1

AIRE (PP) = conditions: total n = 4; for Array Heatmap signal, AIRE (PP): sheet "Array Heatmap", GST-tagged reader, histone peptide array
How it was run: as §1

MLL5 = conditions: total n = 4; for Array Heatmap signal, MLL5: sheet "Array Heatmap", GST-tagged reader, histone peptide array
How it was run: as §1

KDM4C (TTP) = conditions: total n = 4; for Array Heatmap signal, KDM4C (TTP): sheet "Array Heatmap", GST-tagged reader, histone peptide array
How it was run: as §1

MORC3 (CW) = conditions: total n = 4; for Array Heatmap signal, MORC3 (CW): sheet "Array Heatmap", GST-tagged reader, histone peptide array
How it was run: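 Binding read as mean relative signal from 4 replicates; microarray held 293 synthetic histone peptides with single or combinatorial PTMs. Each GST-tagged PHD reader was applied at 0.5 μM using the optimized Petell protocol.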

DPF2 (PPC2W2) = conditions: total n = 4; for Array Heatmap signal, DPF2 (PPC2W2): sheet "Array Heatmap", GST-tagged reader, histone peptide array
How it was run: as §1

PHF2 = conditions: total n = 4; for Array Heatmap signal, PHF2: sheet "Array Heatmap", GST-tagged reader, histone peptide array
How it was run: as §1

KDM5A (3) = conditions: total n = 4; for Array Heatmap signal, KDM5A (3): sheet "Array Heatmap", GST-tagged reader, histone peptide array
How it was run: as §1

ING2 = conditions: total n = 4; for Array Heatmap signal, ING2: sheet "Array Heatmap", GST-tagged reader, histone peptide array
How it was run: as §1

PHF8 = conditions: total n = 4; for Array Heatmap signal, PHF8: sheet "Array Heatmap", GST-tagged reader, histone peptide array
How it was run: as §1

CHD5 (PPCC) = conditions: total n = 4; for Array Heatmap signal, CHD5 (PPCC): sheet "Array Heatmap", GST-tagged reader, histone peptide array
How it was run: as §1

ING1 = conditions: total n = 4; for Array Heatmap signal, ING1: sheet "Array Heatmap", GST-tagged reader, histone peptide array
How it was run: as §1

## H3K9ac + K14ac: H3 1-20
CHD5 (PCC); GST-tagged CHD5 (PCC = PHD + Dual Chromodomain), sheet Array Heatmap, each array performed twice
  Array Heatmap signal (histone peptide microarray): 0.9958
BPTF (PB); GST-tagged BPTF (PB = PHD + Bromodomain), sheet Array Heatmap, each array performed twice
  Array Heatmap signal (histone peptide microarray): 0.3651
PHF21A; GST-tagged PHF21A, sheet Array Heatmap, each array performed twice
  Array Heatmap signal (histone peptide microarray): 0.5392
PHF13; GST-tagged PHF13, sheet Array Heatmap, each array performed twice
  Array Heatmap signal (histone peptide microarray): 0.6041
PHRF1 (RP); GST-tagged PHRF1 (RP), sheet Array Heatmap, each array performed twice
  Array Heatmap signal (histone peptide microarray): 1
ING5; GST-tagged ING5, sheet Array Heatmap, each array performed twice
  Array Heatmap signal (histone peptide microarray): 0.3504
TRIM66 (PB); GST-tagged TRIM66 (PB = PHD + Bromodomain), sheet Array Heatmap, each array performed twice
  Array Heatmap signal (histone peptide microarray): 0.9112
KDM5A (1); GST-tagged KDM5A (1), sheet Array Heatmap, each array performed twice
  Array Heatmap signal (histone peptide microarray): 0.5569
ING4; GST-tagged ING4, sheet Array Heatmap, each array performed twice
  Array Heatmap signal (histone peptide microarray): 0.4734
RAG2; GST-tagged RAG2, sheet Array Heatmap, each array performed twice
  Array Heatmap signal (histone peptide microarray): 0.2862
CHD4 (PPCC); GST-tagged CHD4 (PPCC = Dual PHD + Dual Chromodomain), sheet Array Heatmap, each array performed twice
  Array Heatmap signal (histone peptide microarray): 0.673
KDM5B (1); GST-tagged KDM5B (1), sheet Array Heatmap, each array performed twice
  Array Heatmap signal (histone peptide microarray): 0.9142
PHF23; GST-tagged PHF23, sheet Array Heatmap, each array performed twice
  Array Heatmap signal (histone peptide microarray): 0.5024
SP140L; GST-tagged SP140L, sheet Array Heatmap, each array performed twice
  Array Heatmap signal (histone peptide microarray): 0.3541
BAZ2B; GST-tagged BAZ2B, sheet Array Heatmap, each array performed twice
  Array Heatmap signal (histone peptide microarray): 1
DIDO1; GST-tagged DIDO1, sheet Array Heatmap, each array performed twice
  Array Heatmap signal (histone peptide microarray): 0.6252
KDM5B (3); GST-tagged KDM5B (3), sheet Array Heatmap, each array performed twice
  Array Heatmap signal (histone peptide microarray): 0.6203
TAF3; GST-tagged TAF3, sheet Array Heatmap, each array performed twice
  Array Heatmap signal (histone peptide microarray): 0.3149
ING3; GST-tagged ING3, sheet Array Heatmap, each array performed twice
  Array Heatmap signal (histone peptide microarray): 0.4549
KDM7A; GST-tagged KDM7A, sheet Array Heatmap, each array performed twice
  Array Heatmap signal (histone peptide microarray): 0.4362
AIRE (PP); GST-tagged AIRE (PP), sheet Array Heatmap, each array performed twice
  Array Heatmap signal (histone peptide microarray): 0.699
MLL5; GST-tagged MLL5, sheet Array Heatmap, each array performed twice
  Array Heatmap signal (histone peptide microarray): 0.5394
KDM4C (TTP); GST-tagged KDM4C (TTP = Tandem Tudor domain + PHD), sheet Array Heatmap, each array performed twice
  Array Heatmap signal (histone peptide microarray): 0.5191
MORC3 (CW); GST-tagged MORC3 (CW = CW-type Zn-finger), sheet Array Heatmap, each array performed twice
  Array Heatmap signal (histone peptide microarray): 0.5873
DPF2 (PPC2W2); GST-tagged DPF2 (PPC2W2 = Dual PHD + C2W2-type Zn-finger), sheet Array Heatmap, each array performed twice
  Array Heatmap signal (histone peptide microarray): 1
PHF2; GST-tagged PHF2, sheet Array Heatmap, each array performed twice
  Array Heatmap signal (histone peptide microarray): 0.4774
KDM5A (3); GST-tagged KDM5A (3), sheet Array Heatmap, each array performed twice
  Array Heatmap signal (histone peptide microarray): 0.5178
ING2; GST-tagged ING2, sheet Array Heatmap, each array performed twice
  Array Heatmap signal (histone peptide microarray): 0.5932
PHF8; GST-tagged PHF8, sheet Array Heatmap, each array performed twice
  Array Heatmap signal (histone peptide microarray): 0.3842
CHD5 (PPCC); GST-tagged CHD5 (PPCC = Dual PHD + Dual Chromodomain), sheet Array Heatmap, each array performed twice
  Array Heatmap signal (histone peptide microarray): 0.6001
ING1; GST-tagged ING1, sheet Array Heatmap, each array performed twice
  Array Heatmap signal (histone peptide microarray): 0.5104

## H3K9ac + S10p: H3 1-20
CHD5 (PCC)
  Array Heatmap signal, CHD5 (PCC): 0.846
BPTF (PB)
  Array Heatmap signal, BPTF (PB): 0.3364
PHF21A
  Array Heatmap signal, PHF21A: 0.4788
PHF13
  Array Heatmap signal, PHF13: 0.5949
PHRF1 (RP)
  Array Heatmap signal, PHRF1 (RP): 0.4935
ING5
  Array Heatmap signal, ING5: 0.3597
TRIM66 (PB)
  Array Heatmap signal, TRIM66 (PB): 0.5818
KDM5A (1)
  Array Heatmap signal, KDM5A (1): 0.5046
ING4
  Array Heatmap signal, ING4: 0.4766
RAG2
  Array Heatmap signal, RAG2: 0.2427
CHD4 (PPCC)
  Array Heatmap signal, CHD4 (PPCC): 0.5496
KDM5B (1)
  Array Heatmap signal, KDM5B (1): 0.6761
PHF23
  Array Heatmap signal, PHF23: 0.5104
SP140L
  Array Heatmap signal, SP140L: 0.3709
BAZ2B
  Array Heatmap signal, BAZ2B: 0.4929
DIDO1
  Array Heatmap signal, DIDO1: 0.6052
KDM5B (3)
  Array Heatmap signal, KDM5B (3): 0.53
TAF3
  Array Heatmap signal, TAF3: 0.2808
ING3
  Array Heatmap signal, ING3: 0.4478
KDM7A
  Array Heatmap signal, KDM7A: 0.5012
AIRE (PP)
  Array Heatmap signal, AIRE (PP): 0.6057
MLL5
  Array Heatmap signal, MLL5: 0.5353
KDM4C (TTP)
  Array Heatmap signal, KDM4C (TTP): 0.5441
MORC3 (CW)
  Array Heatmap signal, MORC3 (CW): 0.3729
DPF2 (PPC2W2)
  Array Heatmap signal, DPF2 (PPC2W2): 0.6808
PHF2
  Array Heatmap signal, PHF2: 0.4212
KDM5A (3)
  Array Heatmap signal, KDM5A (3): 0.462
ING2
  Array Heatmap signal, ING2: 0.597
PHF8
  Array Heatmap signal, PHF8: 0.3696
CHD5 (PPCC)
  Array Heatmap signal, CHD5 (PPCC): 0.5687
ING1
  Array Heatmap signal, ING1: 0.4982

## H3K9me1: H3 1-20 [Peptide H3K9me1]
CHD5 (PCC)
  Array Heatmap signal, CHD5 (PCC): 0.8558
BPTF (PB)
  Array Heatmap signal, BPTF (PB): 0.3459
PHF21A
  Array Heatmap signal, PHF21A: 0.4979
PHF13
  Array Heatmap signal, PHF13: 0.594
PHRF1 (RP)
  Array Heatmap signal, PHRF1 (RP): 0.6479
ING5
  Array Heatmap signal, ING5: 0.3437
TRIM66 (PB)
  Array Heatmap signal, TRIM66 (PB): 0.6422
KDM5A (1)
  Array Heatmap signal, KDM5A (1): 0.4835
ING4
  Array Heatmap signal, ING4: 0.4656
RAG2
  Array Heatmap signal, RAG2: 0.2526
CHD4 (PPCC)
  Array Heatmap signal, CHD4 (PPCC): 0.6171
KDM5B (1)
  Array Heatmap signal, KDM5B (1): 0.68
PHF23
  Array Heatmap signal, PHF23: 0.5057
SP140L
  Array Heatmap signal, SP140L: 0.3427
BAZ2B
  Array Heatmap signal, BAZ2B: 0.4746
DIDO1
  Array Heatmap signal, DIDO1: 0.6415
KDM5B (3)
  Array Heatmap signal, KDM5B (3): 0.4949
TAF3
  Array Heatmap signal, TAF3: 0.2561
ING3
  Array Heatmap signal, ING3: 0.4876
KDM7A
  Array Heatmap signal, KDM7A: 0.3983
AIRE (PP)
  Array Heatmap signal, AIRE (PP): 0.5694
MLL5
  Array Heatmap signal, MLL5: 0.5407
KDM4C (TTP)
  Array Heatmap signal, KDM4C (TTP): 0.5061
MORC3 (CW)
  Array Heatmap signal, MORC3 (CW): 0.4491
DPF2 (PPC2W2)
  Array Heatmap signal, DPF2 (PPC2W2): 0.6871
PHF2
  Array Heatmap signal, PHF2: 0.4569
KDM5A (3)
  Array Heatmap signal, KDM5A (3): 0.4739
ING2
  Array Heatmap signal, ING2: 0.5783
PHF8
  Array Heatmap signal, PHF8: 0.3494
CHD5 (PPCC)
  Array Heatmap signal, CHD5 (PPCC): 0.5585
ING1
  Array Heatmap signal, ING1: 0.4934

— PMC6979384, “Characterization of the plant homeodomain (PHD) reader family for their histone tail interactions” (Epigenetics & Chromatin, 2020)
